{"source": "PubChem BioAssay AID1963980", "about": "(Molecular Pharmacology Branch, DTP, NCI, 2024);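 also: spheroids exposed to agents for seven days before readout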", "data": [{"tested_on": "475296-252-R-J1-PDC spheroid viability", "assay": "Anticancer human tumor 475296-252-R-J1-PDC patient-derived rectal carcinoma cell line growth inhibition [PI3K]", "details": "curve of first compound; second compound 0.00316 µM; spheroids with HUVEC and MSC", "in_short": "(§1)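 We assembled tumor spheroids that included a stromal compartment of HUVEC and MSCs, then exposed them to targeted agents alone and together with PI3K pathway inhibitors. Concentration series descended by half-log from clinically achievable Cmax levels. Viability served as the endpoint.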", "units": {"IC50": "µM"}, "values": [{"smiles": "C#Cc1c(F)ccc2cc(O)cc(-c3ncc4c(N5CC6CCC(C5)N6)nc(OCC56CCCN5CC(F)C6)nc4c3F)c12", "note": "(stereo unspecified) + CC(Nc1ccc2c(c1)OCCn1cc(N3C(=O)OCC3C(F)F)nc1-2)C(N)=O", "IC50": "> 10"}, {"smiles": "CC(Cn1ccc(-c2ccc(C#N)c(Cl)c2)n1)NC(=O)c1cc(C(C)O)[nH]n1", "note": "(stereo unspecified) + CC(Nc1ccc2c(c1)OCCn1cc(N3C(=O)OCC3C(F)F)nc1-2)C(N)=O", "IC50": "> 10"}, {"smiles": "CC1(C)CCC(Nc2ncc(C(F)(F)F)c(-c3c[nH]c4c(P(C)(C)=O)c(C#N)ccc34)n2)CN1", "note": "(stereo unspecified) + CC(Nc1ccc2c(c1)OCCn1cc(N3C(=O)OCC3C(F)F)nc1-2)C(N)=O", "IC50": "> 10"}]}, {"tested_on": "475296-252-R-J1-PDC spheroid viability", "assay": "Anticancer human tumor 475296-252-R-J1-PDC cell line growth inhibition [PI3K]", "details": "curve of first compound; second compound 0.01 µM; spheroids with HUVEC and MSC", "in_short": "as §1", "units": {"IC50": "µM"}, "values": [{"smiles": "C#Cc1c(F)ccc2cc(O)cc(-c3ncc4c(N5CC6CCC(C5)N6)nc(OCC56CCCN5CC(F)C6)nc4c3F)c12", "note": "(stereo unspecified) + CC(Nc1ccc2c(c1)OCCn1cc(N3C(=O)OCC3C(F)F)nc1-2)C(N)=O", "IC50": "> 10"}, {"smiles": "CC(Cn1ccc(-c2ccc(C#N)c(Cl)c2)n1)NC(=O)c1cc(C(C)O)[nH]n1", "note": "(stereo unspecified) + CC(Nc1ccc2c(c1)OCCn1cc(N3C(=O)OCC3C(F)F)nc1-2)C(N)=O", "IC50": "> 10"}, {"smiles": "CC1(C)CCC(Nc2ncc(C(F)(F)F)c(-c3c[nH]c4c(P(C)(C)=O)c(C#N)ccc34)n2)CN1", "note": "(stereo unspecified) + CC(Nc1ccc2c(c1)OCCn1cc(N3C(=O)OCC3C(F)F)nc1-2)C(N)=O", "IC50": "> 10"}]}, {"tested_on": "475296-252-R-J1-PDC spheroid viability", "assay": "Anticancer human tumor 475296-252-R-J1-PDC cell line growth inhibition [PI3K]", "details": "curve of first compound; second compound 0.0316 µM; spheroids with HUVEC and MSC", "in_short": "as §1", "units": {"IC50": "µM"}, "values": [{"smiles": "C#Cc1c(F)ccc2cc(O)cc(-c3ncc4c(N5CC6CCC(C5)N6)nc(OCC56CCCN5CC(F)C6)nc4c3F)c12", "note": "(stereo unspecified) + CC(Nc1ccc2c(c1)OCCn1cc(N3C(=O)OCC3C(F)F)nc1-2)C(N)=O", "IC50": "> 10"}, {"smiles": "CC(Cn1ccc(-c2ccc(C#N)c(Cl)c2)n1)NC(=O)c1cc(C(C)O)[nH]n1", "note": "(stereo unspecified) + CC(Nc1ccc2c(c1)OCCn1cc(N3C(=O)OCC3C(F)F)nc1-2)C(N)=O", "IC50": "> 10"}, {"smiles": "CC1(C)CCC(Nc2ncc(C(F)(F)F)c(-c3c[nH]c4c(P(C)(C)=O)c(C#N)ccc34)n2)CN1", "note": "(stereo unspecified) + CC(Nc1ccc2c(c1)OCCn1cc(N3C(=O)OCC3C(F)F)nc1-2)C(N)=O", "IC50": "> 10"}]}, {"tested_on": "475296-252-R-J1-PDC spheroid viability", "assay": "Anticancer human tumor 475296-252-R-J1-PDC cell line growth inhibition [PI3K]", "details": "curve of first compound; second compound 0.1 µM; spheroids with HUVEC and MSC", "in_short": "as §1", "units": {"IC50": "µM"}, "values": [{"smiles": "C#Cc1c(F)ccc2cc(O)cc(-c3ncc4c(N5CC6CCC(C5)N6)nc(OCC56CCCN5CC(F)C6)nc4c3F)c12", "note": "(stereo unspecified) + CC(Nc1ccc2c(c1)OCCn1cc(N3C(=O)OCC3C(F)F)nc1-2)C(N)=O", "IC50": 9.51}, {"smiles": "CC(Cn1ccc(-c2ccc(C#N)c(Cl)c2)n1)NC(=O)c1cc(C(C)O)[nH]n1", "note": "(stereo unspecified) + CC(Nc1ccc2c(c1)OCCn1cc(N3C(=O)OCC3C(F)F)nc1-2)C(N)=O", "IC50": "> 10"}, {"smiles": "CC1(C)CCC(Nc2ncc(C(F)(F)F)c(-c3c[nH]c4c(P(C)(C)=O)c(C#N)ccc34)n2)CN1", "note": "(stereo unspecified) + CC(Nc1ccc2c(c1)OCCn1cc(N3C(=O)OCC3C(F)F)nc1-2)C(N)=O", "IC50": "> 10"}]}, {"tested_on": "475296-252-R-J1-PDC spheroid viability", "assay": "Anticancer human tumor 475296-252-R-J1-PDC cell line growth inhibition [PI3K]", "details": "curve of first compound; second compound 0.316 µM; spheroids with HUVEC and MSC", "in_short": "as §1", "units": {"IC50": "µM"}, "values": [{"smiles": "C#Cc1c(F)ccc2cc(O)cc(-c3ncc4c(N5CC6CCC(C5)N6)nc(OCC56CCCN5CC(F)C6)nc4c3F)c12", "note": "(stereo unspecified) + CC(Nc1ccc2c(c1)OCCn1cc(N3C(=O)OCC3C(F)F)nc1-2)C(N)=O", "IC50": 1.75}, {"smiles": "CC(Cn1ccc(-c2ccc(C#N)c(Cl)c2)n1)NC(=O)c1cc(C(C)O)[nH]n1", "note": "(stereo unspecified) + CC(Nc1ccc2c(c1)OCCn1cc(N3C(=O)OCC3C(F)F)nc1-2)C(N)=O", "IC50": "> 10"}, {"smiles": "CC1(C)CCC(Nc2ncc(C(F)(F)F)c(-c3c[nH]c4c(P(C)(C)=O)c(C#N)ccc34)n2)CN1", "note": "(stereo unspecified) + CC(Nc1ccc2c(c1)OCCn1cc(N3C(=O)OCC3C(F)F)nc1-2)C(N)=O", "IC50": "> 10"}]}, {"tested_on": "475296-252-R-J1-PDC spheroid viability", "assay": "Anticancer human tumor 475296-252-R-J1-PDC cell line growth inhibition [PI3K]", "details": "curve of first compound; second compound 1 µM; spheroids with HUVEC and MSC", "in_short": "as §1", "units": {"IC50": "µM"}, "values": [{"smiles": "C#Cc1c(F)ccc2cc(O)cc(-c3ncc4c(N5CC6CCC(C5)N6)nc(OCC56CCCN5CC(F)C6)nc4c3F)c12", "note": "(stereo unspecified) + CC(Nc1ccc2c(c1)OCCn1cc(N3C(=O)OCC3C(F)F)nc1-2)C(N)=O", "IC50": 0.828}, {"smiles": "CC(Cn1ccc(-c2ccc(C#N)c(Cl)c2)n1)NC(=O)c1cc(C(C)O)[nH]n1", "note": "(stereo unspecified) + CC(Nc1ccc2c(c1)OCCn1cc(N3C(=O)OCC3C(F)F)nc1-2)C(N)=O", "IC50": "> 10"}, {"smiles": "CC1(C)CCC(Nc2ncc(C(F)(F)F)c(-c3c[nH]c4c(P(C)(C)=O)c(C#N)ccc34)n2)CN1", "note": "(stereo unspecified) + CC(Nc1ccc2c(c1)OCCn1cc(N3C(=O)OCC3C(F)F)nc1-2)C(N)=O", "IC50": "> 10"}]}, {"tested_on": "475296-252-R-J1-PDC spheroid viability", "assay": "Anticancer human tumor 475296-252-R-J1-PDC cell line growth inhibition [PI3K]", "details": "second compound 0.00316 µM; first compound 0.0316 µM; stronger effect = lower value; spheroids with HUVEC and MSC", "in_short": "as §1", "units": {"viability, T/C": "%"}, "values": [{"smiles": "C#Cc1c(F)ccc2cc(O)cc(-c3ncc4c(N5CC6CCC(C5)N6)nc(OCC56CCCN5CC(F)C6)nc4c3F)c12", "note": "(stereo unspecified) + CC(Nc1ccc2c(c1)OCCn1cc(N3C(=O)OCC3C(F)F)nc1-2)C(N)=O", "viability, T/C": 104}, {"smiles": "CC(Cn1ccc(-c2ccc(C#N)c(Cl)c2)n1)NC(=O)c1cc(C(C)O)[nH]n1", "note": "(stereo unspecified) + CC(Nc1ccc2c(c1)OCCn1cc(N3C(=O)OCC3C(F)F)nc1-2)C(N)=O", "viability, T/C": 110}, {"smiles": "CC1(C)CCC(Nc2ncc(C(F)(F)F)c(-c3c[nH]c4c(P(C)(C)=O)c(C#N)ccc34)n2)CN1", "note": "(stereo unspecified) + CC(Nc1ccc2c(c1)OCCn1cc(N3C(=O)OCC3C(F)F)nc1-2)C(N)=O", "viability, T/C": 96.4}]}, {"tested_on": "475296-252-R-J1-PDC spheroid viability", "assay": "Anticancer human tumor 475296-252-R-J1-PDC cell line growth inhibition [PI3K]", "details": "second compound 0.00316 µM; first compound 0.1 µM; stronger effect = lower value; spheroids with HUVEC and MSC", "in_short": "as §1", "units": {"viability, T/C": "%"}, "values": [{"smiles": "C#Cc1c(F)ccc2cc(O)cc(-c3ncc4c(N5CC6CCC(C5)N6)nc(OCC56CCCN5CC(F)C6)nc4c3F)c12", "note": "(stereo unspecified) + CC(Nc1ccc2c(c1)OCCn1cc(N3C(=O)OCC3C(F)F)nc1-2)C(N)=O", "viability, T/C": 78.2}, {"smiles": "CC(Cn1ccc(-c2ccc(C#N)c(Cl)c2)n1)NC(=O)c1cc(C(C)O)[nH]n1", "note": "(stereo unspecified) + CC(Nc1ccc2c(c1)OCCn1cc(N3C(=O)OCC3C(F)F)nc1-2)C(N)=O", "viability, T/C": 96.5}, {"smiles": "CC1(C)CCC(Nc2ncc(C(F)(F)F)c(-c3c[nH]c4c(P(C)(C)=O)c(C#N)ccc34)n2)CN1", "note": "(stereo unspecified) + CC(Nc1ccc2c(c1)OCCn1cc(N3C(=O)OCC3C(F)F)nc1-2)C(N)=O", "viability, T/C": 86.1}]}, {"tested_on": "475296-252-R-J1-PDC spheroid viability", "assay": "Anticancer human tumor 475296-252-R-J1-PDC cell line growth inhibition [PI3K]", "details": "second compound 0.00316 µM; first compound 0.316 µM; stronger effect = lower value; spheroids with HUVEC and MSC", "in_short": "as §1", "units": {"viability, T/C": "%"}, "values": [{"smiles": "C#Cc1c(F)ccc2cc(O)cc(-c3ncc4c(N5CC6CCC(C5)N6)nc(OCC56CCCN5CC(F)C6)nc4c3F)c12", "note": "(stereo unspecified) + CC(Nc1ccc2c(c1)OCCn1cc(N3C(=O)OCC3C(F)F)nc1-2)C(N)=O", "viability, T/C": 87.1}, {"smiles": "CC(Cn1ccc(-c2ccc(C#N)c(Cl)c2)n1)NC(=O)c1cc(C(C)O)[nH]n1", "note": "(stereo unspecified) + CC(Nc1ccc2c(c1)OCCn1cc(N3C(=O)OCC3C(F)F)nc1-2)C(N)=O", "viability, T/C": 93.9}, {"smiles": "CC1(C)CCC(Nc2ncc(C(F)(F)F)c(-c3c[nH]c4c(P(C)(C)=O)c(C#N)ccc34)n2)CN1", "note": "(stereo unspecified) + CC(Nc1ccc2c(c1)OCCn1cc(N3C(=O)OCC3C(F)F)nc1-2)C(N)=O", "viability, T/C": 98.4}]}, {"tested_on": "475296-252-R-J1-PDC spheroid viability", "assay": "Anticancer human tumor 475296-252-R-J1-PDC cell line growth inhibition [PI3K]", "details": "second compound 0.00316 µM; first compound 1 µM; stronger effect = lower value; spheroids with HUVEC and MSC", "in_short": "as §1", "units": {"viability, T/C": "%"}, "values": [{"smiles": "C#Cc1c(F)ccc2cc(O)cc(-c3ncc4c(N5CC6CCC(C5)N6)nc(OCC56CCCN5CC(F)C6)nc4c3F)c12", "note": "(stereo unspecified) + CC(Nc1ccc2c(c1)OCCn1cc(N3C(=O)OCC3C(F)F)nc1-2)C(N)=O", "viability, T/C": 74.6}, {"smiles": "CC(Cn1ccc(-c2ccc(C#N)c(Cl)c2)n1)NC(=O)c1cc(C(C)O)[nH]n1", "note": "(stereo unspecified) + CC(Nc1ccc2c(c1)OCCn1cc(N3C(=O)OCC3C(F)F)nc1-2)C(N)=O", "viability, T/C": 83.8}, {"smiles": "CC1(C)CCC(Nc2ncc(C(F)(F)F)c(-c3c[nH]c4c(P(C)(C)=O)c(C#N)ccc34)n2)CN1", "note": "(stereo unspecified) + CC(Nc1ccc2c(c1)OCCn1cc(N3C(=O)OCC3C(F)F)nc1-2)C(N)=O", "viability, T/C": 116}]}, {"tested_on": "475296-252-R-J1-PDC spheroid viability", "assay": "Anticancer human tumor 475296-252-R-J1-PDC cell line growth inhibition [PI3K]", "details": "second compound 0.00316 µM; first compound 3.16 µM; stronger effect = lower value; spheroids with HUVEC and MSC", "in_short": "as §1", "units": {"viability, T/C": "%"}, "values": [{"smiles": "C#Cc1c(F)ccc2cc(O)cc(-c3ncc4c(N5CC6CCC(C5)N6)nc(OCC56CCCN5CC(F)C6)nc4c3F)c12", "note": "(stereo unspecified) + CC(Nc1ccc2c(c1)OCCn1cc(N3C(=O)OCC3C(F)F)nc1-2)C(N)=O", "viability, T/C": 67.5}]}]}
